Data published in patent US11319293B2, “Polymorps of cariprazine hydrochloride and preparation method thereof and use of same” (SHANGHAI BEGREAT PHARMATECH, priority 2018, dated 2022).
Structures can show the parent of a compound that is named as a salt.

Key:
bipolar disorder = details: cited from earlier work
schizophrenia = details: cited from earlier work
[1] = Dissolution and re-precipitation time in pH 6.5 buffer (simulated fasting small intestine); format: physicochemical; details: for Dissolving time / Precipitate time: 5 mg crystal form in 80 mL pH 6.5 buffer solution; for Dissolving time: shaken slightly; for Precipitate time: time of re-precipitation, hydrochloride
Description: In Example 1, precipitation time for Form A and Forms I and II were compared under pH of simulated intestinal fluid. Take 5 mg of crystal forms A, I and II, and put them in 100-ml glass sample bottles, add 80 mL of pH 6.5 buffer solution (pH value of simulating fasting small intestine), and shake them slightly to observe precipitate. Dissolution status and time of re-precipitation were recorded.

[2] = Powder flowability test (angle of repose); format: physicochemical; details: for angle of repose: average of three determinations, α=arctg(H/R), hydrochloride; for flowability compared with forms I and II (in words): conclusion from angle of repose
Source text: Angle of repose is adopted widely to evaluate the powder flowability. When the angle of repose of the powder is less than or equal to 30 degrees, it means the flowability of this powder is good. While in case, 40 degrees or less of the powder angle of repose, this powder can satisfy the demand for fluidity in the production process. When the angle of repose of the powder is more than 40 degrees, it means the very poor flowability of the drug powder which may cause the troubles above mentioned during the drug manufacturing process.
Powder flowability test: A petri dish with a diameter of 7 cm in the bottom plate is used. Two glass funnels are staggered on top of each other and fixed on an iron stand. The distance between the lower funnel outlet and the bottom plate is between 3.5-6.0 cm. Take some cariprazine hydrochlorides in different crystal forms, and slowly add them from the upper funnel, so that the sample gradually accumulates on the chassis through the buffer of the two funnels to form a cone until the highest cone is obtained. Measure the height H of the cone. Determine three times for each sample, take the average, and calculate the angle of repose as follows: α=arctg(H/R) Among them, α is the angle of repose and R is the radius of the chassis.
When the angle of repose of the powder is less than or equal to 30 degrees, it means flowability of powder is good. The flowability requirement in the manufactured process can be satisfied when it is less than or equal to 40 degrees. If the angle of repose of powder is more than 40 degrees, it means flowability is poor.

Compound | symptoms of bipolar disorder compared with placebo group (bipolar disorder; 6-week clinical trial, 1037 subjects) | most common adverse effects in the treatment of bipolar disorder (bipolar disorder; clinical trials) | most common adverse effects in the treatment of schizophrenia (schizophrenia; clinical trials) | symptoms of schizophrenia compared to placebo group (schizophrenia; six-week clinical trial, 1,754 participants, according to the FDA) | Dissolving time [1] | Precipitate time [1] | maintenance of dissolved state under near-neutral conditions compared to Forms I and II (in words) ([1]; pH 6.5 buffer) | angle of repose [2] | flowability compared with forms I and II (in words) [2]
CN(C)C(=O)N[C@H]1CC[C@H](CCN2CCN(c3cccc(Cl)c3Cl)CC2)CC1 [Compound 1, hydrochloride] | significantly reduce the symptoms of bipolar disorder | extrapyramidal symptoms, manifested by inability to sit still, indigestion, vomiting, lethargy, and restlessness | extrapyramidal symptoms, including tremor, speech insufficiency, and dystonia | significantly reduces the symptoms of schizophrenia | – | – | – | – | –
CN(C)C(=O)N[C@H]1CC[C@H](CCN2CCN(c3cccc(Cl)c3Cl)CC2)CC1 [Form A, trans-N-{4-[2-[4-(2,3-dichlorophenyl)-piperazine-1-yl]-ethyl]-cyclohexyl}-N′,N′-dimethylurea hydrochloride] | – | – | – | – | immediately | 10 min | significantly prolonged maintenance | 35° | significantly improve the flowability
CN(C)C(=O)N[C@H]1CC[C@H](CCN2CCN(c3cccc(Cl)c3Cl)CC2)CC1 [Form B, trans-N-{4-[2-[4-(2,3-dichlorophenyl)-piperazine-1-yl]-ethyl]-cyclohexyl}-N′,N′-dimethylurea hydrochloride] | – | – | – | – | – | – | – | 28° | significantly improve the flowability
CN(C)C(=O)N[C@H]1CC[C@H](CCN2CCN(c3cccc(Cl)c3Cl)CC2)CC1 [Form C, trans-N-{4-[2-[4-(2,3-dichlorophenyl)-piperazine-1-yl]-ethyl]-cyclohexyl}-N′,N′-dimethylurea hydrochloride] | – | – | – | – | – | – | – | 31° | significantly improve the flowability
CN(C)C(=O)N[C@H]1CC[C@H](CCN2CCN(c3cccc(Cl)c3Cl)CC2)CC1 [Form I, cariprazine hydrochloride] | – | – | – | – | immediately | 1 min | – | 40° | –
CN(C)C(=O)N[C@H]1CC[C@H](CCN2CCN(c3cccc(Cl)c3Cl)CC2)CC1 [Form II, cariprazine hydrochloride] | – | – | – | – | immediately | 1 min | – | 40° | –
